Experimental data as given in ChEMBL document CHEMBL1145498, “A systematic interaction map of validated kinase inhibitors with Ser/Thr kinases” (Proc Natl Acad Sci U S A, 2007).

Legend:
[1] = molecular target: Serine/threonine-protein kinase Nek6 (Homo sapiens) (UniProt Q9HC98)
[2] = molecular target: Casein kinase I isoform gamma-1 (Homo sapiens) (UniProt Q9HCP0)
[3] = molecular target: Calcium/calmodulin-dependent protein kinase type 1G (Homo sapiens) (UniProt Q96NX5)
[4] = molecular target: Ribosomal protein S6 kinase alpha-3 (Homo sapiens) (UniProt P51812)
[5] = molecular target: STE20-like serine/threonine-protein kinase (Homo sapiens) (UniProt Q9H2G2)
[6] = molecular target: T1, Serine/threonine-protein kinase PLK4 (Homo sapiens) (UniProt O00444)
T1 sequence (whole entry): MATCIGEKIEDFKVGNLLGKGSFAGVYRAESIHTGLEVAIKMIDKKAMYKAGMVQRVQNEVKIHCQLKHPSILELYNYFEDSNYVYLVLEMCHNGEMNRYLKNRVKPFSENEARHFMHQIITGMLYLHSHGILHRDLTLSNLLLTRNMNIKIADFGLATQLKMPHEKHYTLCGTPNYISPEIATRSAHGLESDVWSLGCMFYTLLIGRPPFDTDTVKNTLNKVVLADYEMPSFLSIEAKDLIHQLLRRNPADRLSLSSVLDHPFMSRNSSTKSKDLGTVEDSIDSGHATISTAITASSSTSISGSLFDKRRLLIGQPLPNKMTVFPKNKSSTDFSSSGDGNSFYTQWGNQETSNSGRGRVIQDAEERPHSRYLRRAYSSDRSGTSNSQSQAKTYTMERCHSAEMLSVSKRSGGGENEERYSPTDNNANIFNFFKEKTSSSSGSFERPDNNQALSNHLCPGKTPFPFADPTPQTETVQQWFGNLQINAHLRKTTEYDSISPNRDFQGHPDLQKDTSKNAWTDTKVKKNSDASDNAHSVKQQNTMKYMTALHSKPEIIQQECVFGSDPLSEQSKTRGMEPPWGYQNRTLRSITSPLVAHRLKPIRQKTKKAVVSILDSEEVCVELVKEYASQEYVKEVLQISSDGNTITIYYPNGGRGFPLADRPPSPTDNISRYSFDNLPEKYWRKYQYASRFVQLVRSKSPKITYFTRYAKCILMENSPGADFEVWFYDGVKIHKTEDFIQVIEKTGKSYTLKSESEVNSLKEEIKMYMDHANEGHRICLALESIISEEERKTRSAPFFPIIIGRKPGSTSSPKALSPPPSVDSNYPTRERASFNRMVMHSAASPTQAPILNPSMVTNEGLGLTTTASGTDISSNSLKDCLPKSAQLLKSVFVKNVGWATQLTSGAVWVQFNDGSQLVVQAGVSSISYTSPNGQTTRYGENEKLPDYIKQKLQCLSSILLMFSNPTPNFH

[7] = molecular target: Dual specificity protein kinase CLK3 (Homo sapiens) (UniProt P49761)
[8] = molecular target: Cyclin-dependent kinase 6 (Homo sapiens) (UniProt Q00534)
[9] = molecular target: Calcium/calmodulin-dependent protein kinase kinase 2 (Homo sapiens, UniProt Q96RR4)
[10] = molecular target: Mitogen-activated protein kinase 11 (Homo sapiens, UniProt Q15759)
[11] = molecular target: Serine/threonine-protein kinase pim-3 (Homo sapiens) (UniProt Q86V86)
[12] = molecular target: T2, Lymphokine-activated killer T-cell-originated protein kinase (Homo sapiens) (UniProt Q96KB5)
T2 sequence (whole entry): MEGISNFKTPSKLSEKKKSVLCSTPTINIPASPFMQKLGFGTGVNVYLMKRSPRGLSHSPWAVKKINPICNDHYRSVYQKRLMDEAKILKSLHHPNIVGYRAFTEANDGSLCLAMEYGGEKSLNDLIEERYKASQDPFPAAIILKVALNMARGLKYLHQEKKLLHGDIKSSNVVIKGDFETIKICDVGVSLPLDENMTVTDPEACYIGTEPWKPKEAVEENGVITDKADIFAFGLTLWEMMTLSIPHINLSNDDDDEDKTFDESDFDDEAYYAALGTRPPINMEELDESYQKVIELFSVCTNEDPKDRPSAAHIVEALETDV

[13] = molecular target: Mitogen-activated protein kinase 3 (Homo sapiens, UniProt P27361)
[14] = molecular target: Dual specificity protein kinase CLK2 (Homo sapiens) (UniProt P49760)
[15] = molecular target: Serine/threonine-protein kinase pim-2 (Homo sapiens, UniProt Q9P1W9)
[16] = molecular target: cAMP-dependent protein kinase catalytic subunit alpha (Homo sapiens) (UniProt P17612)
[17] = molecular target: Death-associated protein kinase 3 (Homo sapiens) (UniProt O43293)
[18] = molecular target: Serine/threonine-protein kinase Chk2 (Homo sapiens, UniProt O96017)
[19] = molecular target: Serine/threonine-protein kinase OSR1 (Homo sapiens) (UniProt O95747)
[20] = molecular target: Tyrosine-protein kinase JAK1 (Homo sapiens) (UniProt P23458)
Tyrosine-protein kinase JAK1 (Homo sapiens), sequence (P23458 whole entry): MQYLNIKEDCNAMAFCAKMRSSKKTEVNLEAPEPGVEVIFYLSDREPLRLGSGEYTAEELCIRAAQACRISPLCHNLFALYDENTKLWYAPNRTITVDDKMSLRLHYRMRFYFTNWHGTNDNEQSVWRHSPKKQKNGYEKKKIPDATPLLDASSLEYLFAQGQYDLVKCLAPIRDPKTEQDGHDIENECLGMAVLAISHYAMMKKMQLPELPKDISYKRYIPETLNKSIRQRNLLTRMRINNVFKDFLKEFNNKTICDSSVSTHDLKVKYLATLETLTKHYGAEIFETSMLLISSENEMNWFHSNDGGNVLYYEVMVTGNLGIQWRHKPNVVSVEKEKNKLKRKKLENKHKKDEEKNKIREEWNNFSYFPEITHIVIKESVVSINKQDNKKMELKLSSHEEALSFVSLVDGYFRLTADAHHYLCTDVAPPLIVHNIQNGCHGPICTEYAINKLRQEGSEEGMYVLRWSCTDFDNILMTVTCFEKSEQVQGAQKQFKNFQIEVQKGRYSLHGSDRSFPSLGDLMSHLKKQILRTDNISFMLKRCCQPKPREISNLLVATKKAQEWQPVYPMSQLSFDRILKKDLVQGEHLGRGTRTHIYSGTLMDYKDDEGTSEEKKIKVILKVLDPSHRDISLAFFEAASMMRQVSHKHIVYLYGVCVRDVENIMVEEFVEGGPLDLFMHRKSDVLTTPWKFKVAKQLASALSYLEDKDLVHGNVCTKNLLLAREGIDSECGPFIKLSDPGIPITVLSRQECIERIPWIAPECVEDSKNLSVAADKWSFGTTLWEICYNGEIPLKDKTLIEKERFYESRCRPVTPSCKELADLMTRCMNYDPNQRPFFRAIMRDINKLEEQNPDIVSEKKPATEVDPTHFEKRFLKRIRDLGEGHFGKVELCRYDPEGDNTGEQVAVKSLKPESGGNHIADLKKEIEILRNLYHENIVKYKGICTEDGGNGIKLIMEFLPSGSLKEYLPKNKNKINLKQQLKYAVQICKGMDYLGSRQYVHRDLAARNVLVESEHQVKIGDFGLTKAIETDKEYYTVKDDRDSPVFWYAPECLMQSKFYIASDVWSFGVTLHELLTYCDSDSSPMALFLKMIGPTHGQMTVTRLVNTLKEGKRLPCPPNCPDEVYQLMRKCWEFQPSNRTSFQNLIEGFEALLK

Death-associated protein kinase 3 (Homo sapiens), sequence (O43293 whole entry, looked up): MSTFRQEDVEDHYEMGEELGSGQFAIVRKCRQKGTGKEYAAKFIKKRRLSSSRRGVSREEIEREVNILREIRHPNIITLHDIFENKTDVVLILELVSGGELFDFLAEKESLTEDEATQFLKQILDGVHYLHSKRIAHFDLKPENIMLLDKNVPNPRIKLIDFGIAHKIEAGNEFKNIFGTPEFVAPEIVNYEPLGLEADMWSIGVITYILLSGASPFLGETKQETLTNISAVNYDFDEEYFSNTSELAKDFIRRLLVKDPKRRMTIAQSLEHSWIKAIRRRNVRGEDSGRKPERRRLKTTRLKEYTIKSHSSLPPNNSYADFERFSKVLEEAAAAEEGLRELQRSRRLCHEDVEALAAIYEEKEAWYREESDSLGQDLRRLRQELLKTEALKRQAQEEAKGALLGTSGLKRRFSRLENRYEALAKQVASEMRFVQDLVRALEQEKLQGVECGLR
Serine/threonine-protein kinase Nek6 (Homo sapiens), sequence (Q9HC98 whole entry, canonical isoform): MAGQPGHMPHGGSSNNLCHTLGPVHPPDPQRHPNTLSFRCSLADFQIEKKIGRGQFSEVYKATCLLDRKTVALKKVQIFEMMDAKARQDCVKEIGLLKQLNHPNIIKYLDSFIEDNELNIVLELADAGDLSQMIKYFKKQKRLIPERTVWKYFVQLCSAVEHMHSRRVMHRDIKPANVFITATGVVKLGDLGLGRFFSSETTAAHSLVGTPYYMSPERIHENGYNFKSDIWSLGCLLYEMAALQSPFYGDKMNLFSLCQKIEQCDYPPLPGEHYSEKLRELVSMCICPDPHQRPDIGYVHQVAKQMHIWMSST
Calcium/calmodulin-dependent protein kinase kinase 2, sequence (Q96RR4 2-588 limits assumed): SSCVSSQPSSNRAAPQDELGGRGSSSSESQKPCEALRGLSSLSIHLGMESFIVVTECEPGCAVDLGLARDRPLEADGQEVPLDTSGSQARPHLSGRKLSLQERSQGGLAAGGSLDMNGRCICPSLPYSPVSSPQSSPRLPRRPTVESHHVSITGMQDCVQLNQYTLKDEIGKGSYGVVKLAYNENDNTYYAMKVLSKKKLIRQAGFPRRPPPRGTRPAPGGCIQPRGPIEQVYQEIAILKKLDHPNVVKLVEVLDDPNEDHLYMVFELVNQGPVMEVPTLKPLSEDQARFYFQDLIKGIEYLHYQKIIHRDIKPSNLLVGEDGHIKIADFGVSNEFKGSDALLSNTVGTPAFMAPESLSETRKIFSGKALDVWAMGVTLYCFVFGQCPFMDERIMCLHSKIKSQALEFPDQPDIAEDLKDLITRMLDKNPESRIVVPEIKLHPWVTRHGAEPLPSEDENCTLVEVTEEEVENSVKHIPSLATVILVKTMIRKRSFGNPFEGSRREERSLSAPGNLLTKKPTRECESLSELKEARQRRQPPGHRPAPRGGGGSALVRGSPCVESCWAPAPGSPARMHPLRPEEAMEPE
Dual specificity protein kinase CLK3 (Homo sapiens), sequence (P49761 whole entry, looked up): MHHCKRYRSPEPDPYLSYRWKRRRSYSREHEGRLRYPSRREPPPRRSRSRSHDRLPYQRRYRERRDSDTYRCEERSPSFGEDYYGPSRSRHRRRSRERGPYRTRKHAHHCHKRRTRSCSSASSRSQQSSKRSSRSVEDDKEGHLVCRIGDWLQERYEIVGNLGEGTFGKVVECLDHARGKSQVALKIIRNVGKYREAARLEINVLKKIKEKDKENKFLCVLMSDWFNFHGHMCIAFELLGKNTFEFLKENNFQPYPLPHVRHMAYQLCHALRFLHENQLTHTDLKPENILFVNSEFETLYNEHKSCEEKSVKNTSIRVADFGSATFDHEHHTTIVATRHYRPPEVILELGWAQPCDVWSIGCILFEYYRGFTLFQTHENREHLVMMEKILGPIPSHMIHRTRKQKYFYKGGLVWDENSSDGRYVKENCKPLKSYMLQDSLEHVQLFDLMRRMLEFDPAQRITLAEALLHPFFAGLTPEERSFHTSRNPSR
Cyclin-dependent kinase 6 (Homo sapiens), sequence (Q00534 whole entry): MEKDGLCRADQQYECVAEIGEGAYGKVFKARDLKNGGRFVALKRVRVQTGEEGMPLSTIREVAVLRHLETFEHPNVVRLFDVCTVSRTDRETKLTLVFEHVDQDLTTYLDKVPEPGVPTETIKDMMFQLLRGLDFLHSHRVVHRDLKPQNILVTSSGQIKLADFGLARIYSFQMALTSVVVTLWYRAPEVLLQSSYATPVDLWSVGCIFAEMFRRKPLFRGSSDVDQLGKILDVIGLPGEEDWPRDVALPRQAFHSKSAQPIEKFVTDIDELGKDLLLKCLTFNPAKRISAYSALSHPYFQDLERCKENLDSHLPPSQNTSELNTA
Calcium/calmodulin-dependent protein kinase type 1G (Homo sapiens), sequence (Q96NX5 whole entry): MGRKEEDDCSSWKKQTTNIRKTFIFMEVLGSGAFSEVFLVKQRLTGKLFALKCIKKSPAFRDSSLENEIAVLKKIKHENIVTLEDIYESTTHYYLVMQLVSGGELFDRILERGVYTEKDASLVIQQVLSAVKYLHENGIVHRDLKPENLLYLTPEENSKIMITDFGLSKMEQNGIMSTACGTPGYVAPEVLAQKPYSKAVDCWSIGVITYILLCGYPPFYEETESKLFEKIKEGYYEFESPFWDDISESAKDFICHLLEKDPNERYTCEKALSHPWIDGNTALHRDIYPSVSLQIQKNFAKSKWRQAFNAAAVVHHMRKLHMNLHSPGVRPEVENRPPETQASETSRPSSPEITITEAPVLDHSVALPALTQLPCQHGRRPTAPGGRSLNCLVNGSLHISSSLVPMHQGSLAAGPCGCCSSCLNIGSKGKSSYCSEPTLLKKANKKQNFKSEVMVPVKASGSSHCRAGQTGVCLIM
Mitogen-activated protein kinase 3, sequence (P27361 whole entry): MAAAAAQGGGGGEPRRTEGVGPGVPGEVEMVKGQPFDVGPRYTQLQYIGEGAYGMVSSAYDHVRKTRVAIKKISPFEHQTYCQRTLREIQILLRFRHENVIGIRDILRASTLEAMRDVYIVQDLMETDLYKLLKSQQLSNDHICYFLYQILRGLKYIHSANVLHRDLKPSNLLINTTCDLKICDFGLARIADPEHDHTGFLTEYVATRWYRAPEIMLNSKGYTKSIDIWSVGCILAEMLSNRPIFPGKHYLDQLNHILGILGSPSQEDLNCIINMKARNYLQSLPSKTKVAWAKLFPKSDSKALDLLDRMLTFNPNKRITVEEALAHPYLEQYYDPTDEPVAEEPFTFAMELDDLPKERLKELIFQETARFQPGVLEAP
Serine/threonine-protein kinase OSR1 (Homo sapiens), sequence (O95747 2-527 limits assumed): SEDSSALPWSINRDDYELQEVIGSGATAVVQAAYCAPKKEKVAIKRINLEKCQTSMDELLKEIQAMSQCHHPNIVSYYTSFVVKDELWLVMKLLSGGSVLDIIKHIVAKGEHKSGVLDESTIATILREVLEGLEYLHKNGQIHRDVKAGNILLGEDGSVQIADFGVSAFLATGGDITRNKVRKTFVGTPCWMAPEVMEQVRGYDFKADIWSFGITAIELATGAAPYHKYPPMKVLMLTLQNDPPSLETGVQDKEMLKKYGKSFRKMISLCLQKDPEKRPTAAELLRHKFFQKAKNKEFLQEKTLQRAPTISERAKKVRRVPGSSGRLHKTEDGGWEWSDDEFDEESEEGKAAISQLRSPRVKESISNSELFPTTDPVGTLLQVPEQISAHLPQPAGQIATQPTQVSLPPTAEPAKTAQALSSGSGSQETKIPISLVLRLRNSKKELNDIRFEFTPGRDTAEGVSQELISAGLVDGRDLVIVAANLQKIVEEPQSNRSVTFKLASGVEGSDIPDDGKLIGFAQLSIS

Compound | ΔTm [1] | ΔTm [2] | ΔTm [3] | ΔTm [4] | ΔTm [5] | ΔTm [6] | ΔTm [7] | ΔTm [8] | ΔTm [9] | ΔTm [10] | ΔTm [11] | ΔTm [12] | ΔTm [13] | ΔTm [14] | ΔTm [15] | ΔTm [16] | ΔTm [17] | ΔTm [18] | ΔTm [19] | ΔTm [20]
CCCCc1c(-c2ccc(O)cc2)[nH]c2nccnc12 [ALOISINE A] | 2.9 °C | 3 °C | 0.6 °C | 1.9 °C | 6.8 °C | 3.4 °C | 1.5 °C | 1.3 °C | 1.8 °C | 1 °C | 7.7 °C | 0.7 °C | 0.5 °C | 1.9 °C | 4.5 °C | 3.8 °C | 2.3 °C | 5.7 °C | 1.6 °C | 0.5 °C
COc1cc2ncnc(Nc3ccc(NC(=O)c4ccccc4)cc3)c2cc1OC [ANILINOQUINAZOLINE1] | 0.5 °C | 1.1 °C | 2 °C | 9.4 °C | 0.1 °C | 0.5 °C | 0.4 °C | 1.1 °C | 1.3 °C | 0.3 °C | 6.2 °C | 0.3 °C | 0.4 °C | 0 °C | 0.3 °C | 1 °C | 0.5 °C | 7.3 °C | 0.3 °C | 1.9 °C
CC(C)[C@H](CO)Nc1nc(Nc2cc(N)cc(Cl)c2)c2ncn(C(C)C)c2n1 [AMINOPURVALANOL] | 0 °C | 2 °C | 0.5 °C | 3.4 °C | 3.5 °C | 6.2 °C | 6.1 °C | – | 3.3 °C | 2.8 °C | 6.7 °C | – | 0.2 °C | 4.5 °C | -0.1 °C | 6.5 °C | 3.4 °C | 7.5 °C | 2.6 °C | 0.1 °C
Cc1ccc(NC2=CC(=O)c3sc(C)nc3C2=O)cc1 | -0.6 °C | -0.6 °C | -1.4 °C | -0.9 °C | -0.6 °C | -0.3 °C | -0.5 °C | -1.7 °C | -2.4 °C | -0.6 °C | -0.4 °C | – | -1.5 °C | -1 °C | -0.6 °C | -0.4 °C | -0.2 °C | -1.8 °C | -0.2 °C | -0.9 °C
CN(c1cccnc1)c1cc2c(Nc3ccc(F)c(Cl)c3)c(C#N)cnc2cn1 | 1.5 °C | 1.4 °C | 2.4 °C | 1.7 °C | 4.2 °C | 8.2 °C | 1.2 °C | -0.6 °C | 1.9 °C | 0.7 °C | -0.2 °C | – | -1.9 °C | 4.3 °C | 10.7 °C | 2.2 °C | 0.7 °C | 5 °C | 0.3 °C | 0.4 °C
CCCNC(=O)Nc1ccc(Oc2ncnc3cc(OC)c(OC)cc23)cc1Cl [KRN-633] | 0.8 °C | 0.8 °C | 1 °C | 10.7 °C | 0.5 °C | 1 °C | 0.1 °C | 0.6 °C | 0.7 °C | -0.3 °C | 4.9 °C | 0.2 °C | 0.5 °C | -0.2 °C | 0.2 °C | 1 °C | 1.3 °C | 2.4 °C | 0.3 °C | 1 °C
O=C(Nc1cccc(Nc2nccc(Nc3cccc(C(F)(F)F)c3)n2)c1)C1CC1 [ANILINOPYRIMIDINE1] | 1.7 °C | 0.7 °C | 3.8 °C | 5.7 °C | 4.1 °C | 2.2 °C | 0.6 °C | 0.8 °C | 2 °C | 0.8 °C | -0.7 °C | – | 0.9 °C | 0.6 °C | 6.9 °C | 1.3 °C | 6.5 °C | 3.8 °C | 1.2 °C | 2.6 °C
O=C(Nc1cccc(Nc2cc(Nc3cccc(C(F)(F)F)c3)ncn2)c1)C1CC1 | -0.4 °C | 1 °C | 3.7 °C | 2.6 °C | 3.2 °C | 2 °C | 1.5 °C | 0.1 °C | 1.7 °C | 2.8 °C | 0.1 °C | – | 1.5 °C | 0.9 °C | 2.3 °C | 1.1 °C | 2.1 °C | 2.4 °C | 0.9 °C | 1.7 °C
COc1ccc(Cl)cc1NC(=O)Nc1cc(C)nc2ccccc12 | 0 °C | 1.4 °C | 4.4 °C | 0.4 °C | 1.4 °C | 3.4 °C | -0.1 °C | 0.4 °C | 0.4 °C | 1.4 °C | 0.8 °C | – | 2.5 °C | 0.6 °C | 1 °C | 4.8 °C | 2.3 °C | 2.4 °C | 0.6 °C | 0.5 °C
Cc1nc(N)sc1-c1ccnc(Nc2cccc([N+](=O)[O-])c2)n1 | 1.4 °C | 3.9 °C | 4.1 °C | 10.7 °C | 10 °C | 2.3 °C | 4 °C | 4.3 °C | 3.6 °C | 1.2 °C | 1.8 °C | – | 2.7 °C | 7.9 °C | 8.1 °C | 4.8 °C | 8.7 °C | 9.7 °C | 1.2 °C | 4.8 °C
CC(C)c1nn(-c2c(Cl)cccc2Cl)c2nc(Cc3ccc(OCCO)cc3)[nH]c(=O)c12 | 2 °C | 0.1 °C | 0.3 °C | 3.5 °C | -0.5 °C | 2.9 °C | 0.6 °C | 0.5 °C | 1.7 °C | 0.7 °C | -0.4 °C | – | 3.4 °C | 1.3 °C | -0.1 °C | -0.1 °C | 6.2 °C | 3.6 °C | 2.9 °C | 0.2 °C
CN1CCc2[nH]c(=S)c(C#N)c(-c3cccs3)c2C1 | 0 °C | 0.8 °C | 2.5 °C | 0.9 °C | 5.9 °C | 10.7 °C | -0.2 °C | 0.1 °C | 3.8 °C | 4.3 °C | 4.2 °C | – | 0.6 °C | 6.2 °C | -0.3 °C | 14.1 °C | 0.3 °C | 5.3 °C | 0.8 °C | -0.1 °C
